In patent US9128087B2, “Nuclear receptor assay” (PamGene B.V., priority 2006, dated 2015):

Molecular target: T1, PPAR gamma (Homo sapiens, UniProt P37231)
T1 construct: were incubated with GST-tagged PPAR gamma LBD domain (Invitrogen); purchased Invitrogen
T1 sequence (P37231 238-503 limits assumed): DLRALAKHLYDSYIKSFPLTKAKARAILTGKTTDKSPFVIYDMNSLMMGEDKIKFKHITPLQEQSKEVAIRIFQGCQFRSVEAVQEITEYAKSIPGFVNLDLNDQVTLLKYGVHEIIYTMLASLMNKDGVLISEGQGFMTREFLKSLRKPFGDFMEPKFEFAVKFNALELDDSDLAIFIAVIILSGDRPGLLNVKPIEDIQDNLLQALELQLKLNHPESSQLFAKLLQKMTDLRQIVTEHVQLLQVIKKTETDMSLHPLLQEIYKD
Experiment: PamChip microarray binding of PPAR gamma LBD to 48 co-regulator derived peptides
Type: biochemical
Conditions: 1E-3.7 M ligand compared to array without ligand
Experimental: A microarray set-up was prepared comprising 48 peptides immobilized, i.e., a set of 48 co-regulator-derived motifs corresponding to SEQ ID NOs 1, 3-13, 15-46, and 50-53. In this experiment each peptide was present once on the array and at a single peptide concentration (1E-1 M spotting concentration). Preparation of these chips was as described in Example 1. Twelve wells of a 96 well plate (FIG. 2A(a)), each well comprising the same peptide microarray, were incubated with GST-tagged PPAR gamma LBD domain (Invitrogen), and 11 different concentrations of ligand and 1 control (absence of ligand). […]
FIG. 2A(b) represents the top view of a row of wells in a 96-well plate (FIG. 2A(a)), showing the fluorescence results obtained for the PAR gamma interaction, induced by GW1929, with a the 48 peptide motives. A magnification is shown of the fluorescence image of the microarray incubated with the highest concentration (1E-3.7 M) of GW1929. […] However, when the effect of GW1929 is read out on peptide 45 (SEQ ID NO. 45), derived from PPRB (PPAR binding protein), this ligand is characterized as a binding agonist. […] As said, for all peptides an EC50 value could be determined, but in FIG. 3 only the values that could be determined accurately (regression coefficient of the fit better than 0.7) are represented.

## GW1929
  binding of PPAR gamma to peptide 31 (SEQ ID NO. 31, NCOR1): decreased binding
  binding of PPAR gamma to peptide 45 (SEQ ID NO. 45, PPRB): increase binding
